Experimental findings from patent US20190313679A1, “SUGAR-DIPEPTIDE CONJUGATES AS FLAVOR MOLECULES” (NESTEC S.A., priority 2016, published 2019) are described below.

What all share (type): in vivo
Assay [1] is described as follows: Sensory evaluation of the compounds in water. The following applies: 2 g/L in water, 12 panelists. The protocol:
The compounds glutamyl-threonine and 1-deoxy-D-fructosyl-N-glutamyl-threonine were each dissolved and diluted in water in a final concentration of 2 g/L. The solutions were then evaluated by 12 panelists, which were previously screened and selected for their sensory abilities.

Assay [2] is described as follows: Sensory evaluation of the compounds in a chicken soup base. The conditions noted are these: chicken soup with 2 g/L versus reference samples, 12 panelists. The protocol: Chicken soups were prepared by dissolving 6 g chicken base powder (detailed recipe shown in Table 1) and 1 g monosodium glutamate in 500 mL hot water. 1-Deoxy-D-fructosyl-N-glutamyl-threonine was then added separately at 2 g/L final concentrations.
The sensory evaluation was carried out by 12 panelists, previously screened for their sensory abilities. The panelists assessed a maximum of 6 samples per session. They had Vittel water and crackers as mouth cleansers. In all the cases, the panelists were instructed to evaluate the samples for the following attributes: overall flavor persistency, umami, meaty, grilled/popcorn-like, bread-like, boiled chicken, sweet, bitter, and salty. The samples were coded with random 3-digit numbers according to a balanced presentation design, heated at approximately 65° C. and then presented in 40 mL brown plastic containers and under red light to minimize appearance bias (the serving was approximately 25 mL per sample).
The following statistical tests were used to analyze the sensory raw data: First, the Analysis of Variance (ANOVA) with two factors, products (fixed factor) and subject (random factor) was computed in order to determine if there was any difference among samples. The limit of significance (alpha risk) was set at 5%. […] The limit of significance (alpha risk) was set at 5%.

Assay [3] in a line: Comparison between soup bases containing the sugar conjugate and the mixture of glucose and glutamyl-threonine. The conditions noted are these: soup base with 2 g/L (4.57 mmol/L) versus reference soup with same molar glucose and glutamyl-threonine, 6 panelists. The protocol: A first soup was prepared by adding 2 g/L (4.57 mmol/L) 1-deoxy-D-fructosyl-N-glutamyl-threonine in the soup base described above under Example 4. A second soup was prepared by adding the corresponding same molar concentrations of glucose and glutamyl-threonine to the same soup base. The resulting soups were then evaluated by 6 panelists following the same procedure than described above under Example 4.

Assay [4] is described as follows: Seasoning compositions: tomato soups with added compound. The conditions noted are these: tomato soup, 0.5 g/L or 2.5 g/L, versus reference soups without the compounds. As to the method:
Tomato soups can be prepared by dissolving 6 g tomato base powder as can be obtained in the commerce in 500 mL hot water. 1-deoxy-D-fructosyl-N-glutamyl-threonine or alternatively 1-deoxy-D-fructosyl-N-glutamyl-serine can be added at a concentration of 0.5 g/L or 2.5 g/L to the soups in order to improve their taste and flavor profile. […] For example, a similar tomato soup can now be prepared which has the same saltiness as the reference tomato soup but comprising less sodium chloride.

Residues, ends and D or L forms follow the SMILES beside them.

For the compound `CC(O)[C@H](NC(=O)[C@H](CCC(=O)O)NCC1(O)OCC(O)C(O)C1O)C(=O)O` (stereo partly drawn) [1-deoxy-D-fructosyl-N-glutamyl-threonine], the “perceived saltiness of the aqueous solution versus the reference samples” value in assay [1] is recorded as “much more salty”. Further, the bitterness entry in assay [2] is on record as “decreased”. In assay [2] (FIG. 1), the saltiness entry is “significantly increased”. Moreover, in assay [2] (clear trend), the meaty taste result is on record as “improved” and the umami taste result is “improved”. In addition, in assay [3], the “salty and umami taste, tasted with nose-clips” value is “significantly more salty and umami”; the “savory flavors, tasted without nose-clips” value is reported as “clearly more enhanced savory flavors”. In addition, in assay [4], the perceived saltiness result is given as “more salty” and the umami result is reported as “more pronounced umami”.
As to `C[C@@H](O)[C@H](NC(=O)[C@@H](N)CCC(=O)O)C(=O)O` [glutamyl-threonine, reference compound] (H-Glu-Thr-OH), the “taste of the aqueous solution” value in assay [1] was “slightly umami and salty”.
